# Assay results: paper PMC3877906, “Polypeptide Modulators of TRPV1 Produce Analgesia without Hyperthermia” (Marine Drugs, 2013)
# Entries after “also recorded” stand apart in the source; their conditions may differ.
# Experiments:
# [1] = system: TRPV1-dependent normal and diabetic bladder smooth muscle contractility; conditions: ref [17]; cited from earlier work
# From the text: (§1) Polypeptide molecules typically have a greater specific activity at a particular receptor than do small molecule agonists, which makes them attractive for researchers and pharmaceutical companies. We have previously reported the isolation of a polypeptide modulator of TRPV1 from a homogenized extract of the sea anemone Heteractis crispa named APHC1 and its partial in vivo characterization. Two homological polypeptides (APHC2 and APHC3) were subsequently found in the same extract, but their biological activity has not yet been properly characterized. APHC1 and APHC3 are weak ...
# serine proteases = conditions: ref [14],[16]; cited from earlier work
# From the text: as §1
# CD-1 mice [2] = assay: capsaicin-induced acute pain test; type: in vivo, mouse; conditions: n = 9; for pain-related behavior after capsaicin, reduction: 0.1 mg/kg i.v. 15 min before intraplantar capsaicin (3 µg/10 µL), "~44% of response"; for pain-related behavior after capsaicin, in words: 0.1 mg/kg i.v., vs saline
# From the text: Because capsaicin is a selective agonist of the TRPV1 receptor, we tested the efficacy of APHC1 and APHC3 as TRPV1 receptor antagonists using the capsaicin-induced pain model. Intraplantar injection of capsaicin evokes pain-related behavior such as licking and shaking the injected paw. TRPV1 knockout mice are insensitive to the capsaicin test and most antagonists that block capsaicin-induced currents in vitro also block capsaicin induced pain-related behavior in mice.
# (§2) All experiments were performed in accordance with the recommendations in the “Principles of Laboratory Animal Care” and after approval by the Animal Care and Use Committee of the Branch of the IBCh RAS (Pushchino, Russia). Adult male CD-1 mice (Animal Breeding Facility Branch of Shemyakin-Ovchinnikov Institute of Bioorganic Chemistry, Russian Academy of Sciences, Pushchino, Russia) weighing 20–25 g were used. Animals were allowed to acclimate in the laboratory for at least five days. Mice were housed at room temperature (23 ± 2 °C) on a 12 h light–dark cycle with food and water available ad libitum. Polypeptides or vehicle was administered intravenously 15 min before testing.
# (§3) The significance of the data was determined by analysis of variance (ANOVA) followed by Tukey’s test. Data are presented as mean ± S.E.
# Intraplantar injection of capsaicin (3 µg/10 µL in 10% ethanol/90% saline) was used to elicit capsaicin-induced acute pain [36]. Immediately after the capsaicin injection, mice were placed inside glass cylinders for observation. Intraplantar injection of capsaicin evoked licking and shaking of the injected paw in mice. The duration of episodes of licking and paw shaking were recorded.
# TRPV1 [3] = assay: single cell Ca^2+ imaging, acid-induced (pH 5.5) responses of TRPV1-positive HEK-293 cells; type: cell-based, rat; conditions: for inhibition of acid responses: Fura-2, mean ± s.d.
# Procedure: Figure 2 Effects of APHC3 on recombinant TRPV1 expressed in HEK-293 cells. (a) Resting current recorded from a TRPV1-positive cell held at −30 mV. […] Straight lines above the recording indicate application of APHC3 (Long line) and capsaicin (Short lines). The cells were stimulated and rinsed by rapid switching of the bath solution between the control solution and solutions containing the indicated compound. (b) Capsaicin responses in control and in the presence of the 300 nM APHC3 peptide. In each case, the control response was calculated as an average of two acid responses recorded just prior to peptide application. Averaged responses recorded in the presence of APHC3 were normalized to averaged control responses. Those are presented as the mean ± s.d. (n = 4). […] (c, d) Cell responses to the acidification of the bath solution from pH 7.4 to pH 5.5 in control and in the presence of the APHC3 applied at different concentrations as indicated. The experimental traces in (c) and in (d, upper trace) illustrate representative responses of EGFP/TRPV1-positive cells. The bottom trace in (d) represents responses of an EGFP/TRPV1-negative cell assayed simultaneously. (e) Acid responses recorded in the presence of APHC3 (90, 160 and 240 nM) normalized to a control response. The data are presented as the mean ± s.d. (n = 5–10). […] In each case, the control response was calculated as an average of the two acid responses recorded just prior to peptide application. The average of the two acid responses recorded after peptide application was calculated and normalized to the control response. Experimental traces in (c, d) were obtained from three different cells. The changes in bath solution pH (continuous lines) and APHC3 applications (thick straight lines) are shown above the fluorescence traces. Cells were stimulated and rinsed by a rapid replacement of the control bath solution with modified bath solution at pH 5.5 with or without APHC3.
# HEK-293 cells were cultured in Dulbecco’s modified Eagle’s medium (DMEM) (Life Technologies, Grand Island, NY, USA) containing 10% (vol/vol) fetal bovine serum (Thermo Fisher Scientific, Palm Beach, FL, USA), glutamine (1%) and the antibiotic gentamicin (100 μg/mL) (Life Technologies, Grand Island, NY, USA). The pIRES2-EGFP plasmid harboring rat TRPV1 cDNA was transiently transfected into HEK-293 cells by replacing the growth medium in each well with a transfection mixture, containing 1.6 μg of DNA and 4 μL of Lipofectamine (Life Technologies, Grand Island, NY, USA) in 1 mL of serum-free DMEM. After incubating for 6 h, the transfection mixture was replaced with normal culture medium. Cells were assayed within 48–96 h after transfection.
# TRPV3 = TRPV3 activity, oocyte electrophysiology or agonist-induced fluorescence readout; type: cell-based; conditions: concentrations of up to 2 μM; data not shown
# CD-1 mice [4] = assay: CFA-induced thermal hyperalgesia; type: in vivo, mouse; conditions: i.v., n = 9; for reversal of CFA-induced thermal hyperalgesia: 0.1-0.01 mg/kg (dose of this value not stated), 24 h after CFA, 53 °C; for CFA-induced thermal hyperalgesia, in words: 0.1-0.01 mg/kg, vs saline
# From the text: CFA-induced thermal hyperalgesia depends on TRPV1 activation; this was shown in TRPV1-deficient mice and using TRPV1 antagonists. CFA-induced thermal hyperalgesia is a complex process where different inflammatory pathways acting via several mechanisms lower the TRPV1 temperature threshold and influence thermal sensitivity. CFA-treated mice developed thermal hyperalgesia in the injected paw, this manifested as a decrease in the latency to paw withdrawal in response to thermal stimuli (Figure 4c).
# as §2, §3
# Complete Freund’s adjuvant suspended in an oil/saline (1:1) emulsion, was injected into the plantar surface of the left hind-paw of mice (20 μL/paw). Control mice received 20 μL of saline (i.pl.). Injected paw withdrawal latencies in response to thermal stimulation (53 °C) were measured 24 h after CFA injection.
# TRPV1 [5] = conditions: ref [14], cited from earlier work
# Procedure: APHC3’s mode of action was measured on HEK-293 cells using a whole-cell patch clamp approach and single cell Ca^2+ imaging. […] APHC3 is highly homologous to APHC1, differing in four of 56 amino acids. APHC1 and APHC3 have a primary structure that is highly homologous to BPTI/Kunitz type seri ... || The residues responsible for APHC’s activity are not determined. […] These dif ...
Substance,modulation of TRPV1-dependent normal and diabetic bladder smooth muscle contractility [1],inhibition of serine proteases (serine proteases),"pain-related behavior after capsaicin, reduction (CD-1 mice [2])","pain-related behavior after capsaicin, in words (CD-1 mice [2])","reversibility of inhibitory effects (TRPV1 [3]; after washout of the polypeptide, Figure 2a,c,d (capsaicin currents and acid responses))","inhibition of acid-induced Ca^2+ transients, significance (TRPV1 [3]; pH 5.5, 160 and 240 nM, Student test, p < 0.05)","inhibition of acid responses, in words (TRPV1 [3]; pH 5.5, APHC3 90 nM, n = 5)","inhibition of acid responses (TRPV1 [3]; pH 5.5, APHC3 160 nM, n = 7)","inhibition of acid responses (TRPV1 [3]; pH 5.5, APHC3 240 nM, 10 cells)",agonistic/antagonistic activity at TRPV3 (TRPV3),reversal of CFA-induced thermal hyperalgesia (CD-1 mice [4]),"CFA-induced thermal hyperalgesia, in words (CD-1 mice [4])",inhibition of capsaicin-induced currents (TRPV1 [5]; more than 200 nM),"activity on capsaicin-induced TRPV1 currents, in words (TRPV1 [5]; previous study)"
"APHC3: polypeptide from Heteractis crispa highly homologous to APHC1, differing in four of 56 amino acids; produced recombinantly in E. coli (GSICLEPKVVGPCTAYFPRFYFNSETGKCTPFIYGGCEGNGNNFETLRACRGICRA; left off: TRX, end not stated, cleaved)",modulate,weak inhibitors,~ 44%,significantly reduced the behavioral response to capsaicin; also recorded: significantly reduced pain-related behavior,almost completely reversible,statistically significant at 160 and 240 nM,insignificantly effective,15% ± 9%,77% ± 14%,neither agonistic nor antagonistic activity,34%,Dose dependent inhibition of CFA-induced thermal hyperalgesia; also recorded: significantly reduced thermal hyperalgesia,–,–
"APHC1: polypeptide modulator of TRPV1 from sea anemone Heteractis crispa; homologous to BPTI/Kunitz type serine-protease inhibitors; produced recombinantly in E. coli (GSICLEPKVVGPCTAYFRRFYFDSETGKCTVFIYGGCEGNGNNFETLRACRAICRA; left off: TRX, end not stated, cleaved)",modulate,weak inhibitors,~ 44%,significantly reduced the behavioral response to capsaicin; also recorded: significantly reduced pain-related behavior,–,–,–,–,–,neither agonistic nor antagonistic activity,~ 80%,Dose dependent inhibition of CFA-induced thermal hyperalgesia; also recorded: significantly reduced thermal hyperalgesia; also recorded: clearly dose-dependent,~ 32%,partial antagonist
